According to patent US20070093520A1, “Method of treatment of diarrhea-predominant irritable bowel syndrome in a subject” (priority 2005, published 2007):

System: diarrhea-predominant IBS subjects
Experiment: 3007 Study: open-label 52-week safety study, adverse events and withdrawals
Details: Overall

Cc1nccn1C[C@H]1CCc2c(c3cccc4c3n2CCC4)C1=O [cilansetron, (R)-(−)-4,5,6,8,9,10-hexahydro-10-[(2-methyl-1H-imidazol-1-yl)methyl]-11H-pyrido-[3,2,1-jk]-carbazol-11-one]
TEAE: Faeces Abnormal: 9 (2%) n (%) | TEAE: Faeces Hard: 6 (1%) n (%) | TEAE: Fall: 4 (<1%) n (%) | TEAE: Fatigue: 13 (2%) n (%) | TEAE: Fatigue Aggravated: 1 (<1%) n (%) | TEAE: Febrile Disorders: 3 (<1%) n (%) | TEAE: Fibroma NOS: 1 (<1%) n (%) | TEAE: Fibromyalgia: 1 (<1%) n (%) | TEAE: Flatulence: 26 (5%) n (%) | TEAE: Flatulence, Bloating and Distension: 36 (7%) n (%) | TEAE: Fluid Intake Increased: 1 (<1%) n (%) | TEAE: Fluid in Middle Ear: 1 (<1%) n (%) | TEAE: Flushing: 1 (<1%) n (%) | TEAE: Food Allergy: 1 (<1%) n (%) | TEAE: Food Poisoning NOS: 3 (<1%) n (%) | TEAE: Foot Fracture: 2 (<1%) n (%) | TEAE: Fractures and Dislocations NEC: 1 (<1%) n (%) | TEAE: Frequent Bowel Movements: 1 (<1%) n (%) | TEAE: Fungal Infection NOS: 3 (<1%) n (%) | TEAE: Fungal Infections NEC: 8 (1%) n (%) | TEAE: Gamma-Glutamyltransferase Increased: 8 (1%) n (%) | TEAE: Gastric Irritation: 1 (<1%) n (%) | TEAE: Gastritis (Excl Infective): 3 (<1%) n (%) | TEAE: Gastritis NOS: 3 (<1%) n (%) | TEAE: Gastroenteritis NOS: 9 (2%) n (%) | TEAE: Gastroenteritis Viral NOS: 11 (2%) n (%) | TEAE: Gastrointestinal Atonic and Hypomotility Disorders NEC: 133 (25%) n (%) | TEAE: Gastrointestinal Disorders: 268 (50%) n (%) | TEAE: Gastrointestinal Disorders NEC: 3 (<1%) n (%) | TEAE: Gastrointestinal Dyskinetic Disorders: 4 (<1%) n (%) | TEAE: Gastrointestinal Histopathology Procedures: 37 (7%) n (%) | TEAE: Gastrointestinal Infections - Pathogen Class Unspecified: 9 (2%) n (%) | TEAE: Gastrointestinal Inflammatory Disorders NEC: 2 (<1%) n (%) | TEAE: Gastrointestinal Motility Disorder NOS: 3 (<1%) n (%) | TEAE: Gastrointestinal Mucosal Dystrophies and Secretion Disorders: 1 (<1%) n (%) | TEAE: Gastrointestinal Signs and Symptoms NEC: 4 (<1%) n (%) | TEAE: Gastrointestinal Spastic and Hypermotility Disorders: 5 (<1%) n (%) | TEAE: Gastrointestinal and Abdominal Pains (Excl Oral and Throat): 69 (13%) n (%) | TEAE: General Disorders and Administration Site Conditions: 42 (8%) n (%) | TEAE: General Signs and Symptoms NEC: 9 (2%) n (%) | TEAE: Gilbert's Syndrome: 1 (<1%) n (%) | TEAE: Gingival Abscess: 2 (<1%) n (%) | TEAE: Gingival Atrophy: 1 (<1%) n (%) | TEAE: Gingival Disorders NEC: 3 (<1%) n (%) | TEAE: Gingival Pain: 1 (<1%) n (%) | TEAE: Gingival Pains: 1 (<1%) n (%) | TEAE: Gingivitis: 2 (<1%) n (%) | TEAE: Gingivitis Infection NOS: 1 (<1%) n (%) | TEAE: Glucose Tolerance Impaired: 1 (<1%) n (%) | TEAE: Glucose Urine Present: 1 (<1%) n (%) | TEAE: Glycosuria: 1 (<1%) n (%) | TEAE: Goitre: 1 (<1%) n (%) | TEAE: Gout: 2 (<1%) n (%) | TEAE: Groin Pain: 1 (<1%) n (%) | TEAE: Haematocrit Decreased: 1 (<1%) n (%) | TEAE: Haematoma NOS: 1 (<1%) n (%) | TEAE: Haematuria: 4 (<1%) n (%) | TEAE: Haemoglobin Decreased: 1 (<1%) n (%) | TEAE: Haemorrhoidal Haemorrhage: 4 (<1%) n (%) | TEAE: Haemorrhoids: 11 (2%) n (%) | TEAE: Haemorrhoids Aggravated: 1 (<1%) n (%) | TEAE: Haemorrhoids and Gastrointestinal Varices (Excl Oesophageal): 15 (3%) n (%) | TEAE: Halitosis: 1 (<1%) n (%) | TEAE: Hallucination NOS: 1 (<1%) n (%) | TEAE: Hallucination, Auditory: 1 (<1%) n (%) | TEAE: Hand Fracture: 1 (<1%) n (%) | TEAE: Headache NOS: 31 (6%) n (%) | TEAE: Headache NOS Aggravated: 5 (<1%) n (%) | TEAE: Headaches NEC: 39 (7%) n (%) | TEAE: Hearing Losses: 1 (<1%) n (%) | TEAE: Heart Rate Increased: 2 (<1%) n (%) | TEAE: Heart Rate and Pulse Investigations: 2 (<1%) n (%) | TEAE: Heat Exhaustion: 1 (<1%) n (%) | TEAE: Heat Injuries (Excl Thermal Burns): 1 (<1%) n (%) | TEAE: Helicobacter Pylori Antibody Positive: 1 (<1%) n (%) | TEAE: Hepatitis NOS: 1 (<1%) n (%) | TEAE: Hepatobiliary Disorders: 5 (<1%) n (%) | TEAE: Hepatobiliary Signs and Symptoms: 1 (<1%) n (%) | TEAE: Hepatocellular Damage and Hepatitis NEC: 1 (<1%) n (%) | TEAE: Hepatosplenomegaly NOS: 1 (<1%) n (%) | TEAE: Hernia NOS: 1 (<1%) n (%) | TEAE: Hernia Repair NOS: 1 (<1%) n (%) | TEAE: Hernia Repairs: 1 (<1%) n (%) | TEAE: Hernias NEC: 1 (<1%) n (%) | TEAE: Herpes Simplex: 3 (<1%) n (%) | TEAE: Herpes Simplex Aggravated: 1 (<1%) n (%) | TEAE: Herpes Viral Infections: 5 (<1%) n (%) | TEAE: Herpes Zoster: 1 (<1%) n (%) | TEAE: Hiatus Hernia: 2 (<1%) n (%) | TEAE: Hot Flushes NOS: 1 (<1%) n (%) | TEAE: Hypercholesterolaemia: 6 (1%) n (%) | TEAE: Hyperglycaemia NOS: 3 (<1%) n (%) | TEAE: Hyperglycaemic Conditions NEC: 4 (<1%) n (%) | TEAE: Hyperkeratoses: 1 (<1%) n (%) | TEAE: Hyperkeratosis: 1 (<1%) n (%) | TEAE: Hyperlipidaemia NOS: 1 (<1%) n (%) | TEAE: Hyperlipidaemias NEC: 1 (<1%) n (%) | TEAE: Hyperreflexia: 1 (<1%) n (%) | TEAE: Hypersensitivity NOS: 2 (<1%) n (%) | TEAE: Hypertension Aggravated: 2 (<1%) n (%) | TEAE: Hypertension NOS: 13 (2%) n (%) | TEAE: Hypoaesthesia: 2 (<1%) n (%) | TEAE: Hypotension NOS: 1 (<1%) n (%) | TEAE: Immune System Disorders: 9 (2%) n (%) | TEAE: Inborn Errors of Bilirubin Metabolism: 1 (<1%) n (%) | TEAE: Infected Varicose Vein: 1 (<1%) n (%) | TEAE: Infections NEC: 4 (<1%) n (%) | TEAE: Infections and Infestations: 173 (32%) n (%) | TEAE: Influenza: 18 (3%) n (%) | TEAE: Influenza Like Illness: 4 (1%) n (%) | TEAE: Influenza Viral Infections: 18 (3%) n (%) | TEAE: Ingrowing Nail: 1 (<1%) n (%) | TEAE: Inguinal Hernia NOS: 1 (<1%) n (%) | TEAE: Inguinal Hernias: 1 (<1%) n (%) | TEAE: Injury, Poisoning and Procedural Complications: 47 (9%) n (%) | TEAE: Inner Ear Disorders NEC: 1 (<1%) n (%) | TEAE: Inner Ear Infections and Inflammations: 3 (<1%) n (%) | TEAE: Inner Ear Signs and Symptoms: 3 (<1%) n (%) | TEAE: Insomnia: 5 (<1%) n (%) | TEAE: Insomnia Exacerbated: 1 (<1%) n (%) | TEAE: Intermenstrual Bleeding*: 1 (<1%) n (%) | TEAE: Intervertebral Disc Degeneration NOS: 2 (<1%) n (%) | TEAE: Intervertebral Disc Disorder NOS: 1 (<1%) n (%) | TEAE: Intervertebral Disc Disorders NEC: 5 (<1%) n (%) | TEAE: Intervertebral Disc Herniation: 4 (<1%) n (%) | TEAE: Intestinal Haemorrhages: 8 (1%) n (%) | TEAE: Intraocular Pressure Increased: 2 (<1%) n (%) | TEAE: Investigations: 126 (24%) n (%) | TEAE: Irritability: 1 (<1%) n (%) | TEAE: Irritable Bowel Syndrome: 1 (<1%) n (%) | TEAE: Irritable Bowel Syndrome Aggravated: 3 (<1%) n (%) | TEAE: Ischaemic Coronary Artery Disorders: 4 (<1%) n (%) | TEAE: Joint Related Disorders NEC: 2 (<1%) n (%) | TEAE: Joint Related Signs and Symptoms: 14 (3%) n (%) | TEAE: Joint Sprain: 4 (<1%) n (%) | TEAE: Joint Swelling: 1 (<1%) n (%) | TEAE: Kidney Infection NOS: 1 (<1%) n (%) | TEAE: Labyrinthitis NOS: 3 (<1%) n (%) | TEAE: Laceration: 6 (1%) n (%) | TEAE: Lacrimal Disorders: 2 (<1%) n (%) | TEAE: Lactose Intolerance: 1 (<1%) n (%) | TEAE: Laryngeal and Adjacent Sites Disorders NEC (Excl Infections and Neoplasms): 3 (<1%) n (%) | TEAE: Laryngitis NOS: 3 (<1%) n (%) | TEAE: Leiomyoma NOS: 1 (<1%) n (%) | TEAE: Lethargy: 1 (<1%) n (%) | TEAE: Leukopenia NOS: 2 (<1%) n (%) | TEAE: Leukopenias NEC: 2 (<1%) n (%) | TEAE: Libido Decreased: 1 (<1%) n (%) | TEAE: Lid, Lash and Lacrimal Structural Disorders (Excl Congenital): 1 (<1%) n (%) | TEAE: Ligament Sprain: 2 (<1%) n (%) | TEAE: Limb Discomfort NOS: 1 (<1%) n (%) | TEAE: Limb Injuries NEC (Incl Traumatic Amputation): 4 (<1%) n (%) | TEAE: Limb Injury NOS: 2 (<1%) n (%) | TEAE: Lip and Palate Disorders NEC: 1 (<1%) n (%) | TEAE: Lipid Metabolism Disorder NOS: 1 (<1%) n (%) | TEAE: Lipid Metabolism and Deposit Disorders NEC: 1 (<1%) n (%) | TEAE: Lipoma NOS: 2 (<1%) n (%) | TEAE: Liver Function Analyses: 23 (4%) n (%) | TEAE: Liver Function Tests NOS Abnormal: 2 (<1%) n (%) | TEAE: Localised Infection: 2 (<1%) n (%) | TEAE: Localised Osteoarthritis: 1 (<1%) n (%) | TEAE: Loss of Consciousness: 1 (<1%) n (%) | TEAE: Lower Limb Fracture NOS: 1 (<1%) n (%) | TEAE: Lower Limb Fractures and Dislocations: 3 (<1%) n (%) | TEAE: Lower Respiratory Tract Signs and Symptoms: 2 (<1%) n (%) | TEAE: Lower Respiratory Tract and Lung Infections: 28 (5%) n (%) | TEAE: Lymphadenopathy: 2 (<1%) n (%) | TEAE: Lymphangitis and Lymphatic Disorders NEC: 2 (<1%) n (%) | TEAE: Lymphocyte Count Increased: 2 (<1%) n (%)
